This note sets out measurements from ChEMBL document CHEMBL1138129, “A novel nicotinic acetylcholine receptor antagonist radioligand for PET studies” (Bioorg Med Chem Lett, 2006).

The target in data set [1] is Neuronal acetylcholine receptor; alpha4/beta2 (Homo sapiens, UniProt P17787+P43681). The data set is described as follows: Displacement of [3H]epibatidine from alpha-4-beta-2 ACHR. In kind it is protein-complex assay. Background: Displacement assays read how much labelled ligand stays bound in the presence of the test substance.
A short description of data set [2]: Half life of the compound. The format is ADME.
A short description of data set [3]: Lipophilicity as measured by Log P. The format is physicochemical. To be noted: octanol/water.
The nature of data set [4]: Protein binding in baboon plasma. In kind it is ADME, Papio. To be noted: read-out: PPB (converted).

The Ki is a dissociation constant, usually derived from enzyme kinetics or from competition with a known ligand. A high value points to lower affinity. Broadly, the half-life is how long it takes for the measured level to halve. Usually logP stands for the decadic logarithm of the partition coefficient of the neutral form, usually between octanol and water.

Sequence of Neuronal acetylcholine receptor; alpha4/beta2 (P17787 whole entry): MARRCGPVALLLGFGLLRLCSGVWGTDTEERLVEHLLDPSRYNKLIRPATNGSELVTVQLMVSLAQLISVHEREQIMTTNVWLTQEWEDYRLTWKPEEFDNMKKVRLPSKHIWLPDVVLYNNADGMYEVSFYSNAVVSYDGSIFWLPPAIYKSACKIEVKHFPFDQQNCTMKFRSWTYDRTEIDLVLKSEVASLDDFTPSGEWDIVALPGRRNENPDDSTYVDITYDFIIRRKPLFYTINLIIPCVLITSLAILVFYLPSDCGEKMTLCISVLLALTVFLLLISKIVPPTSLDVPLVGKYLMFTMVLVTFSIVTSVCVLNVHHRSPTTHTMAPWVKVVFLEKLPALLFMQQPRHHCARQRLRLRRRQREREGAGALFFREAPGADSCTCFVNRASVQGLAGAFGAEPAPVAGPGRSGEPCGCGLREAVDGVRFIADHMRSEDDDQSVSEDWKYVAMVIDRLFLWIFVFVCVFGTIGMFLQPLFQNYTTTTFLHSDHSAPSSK
Sequence of Neuronal acetylcholine receptor; alpha4/beta2 (P43681 whole entry): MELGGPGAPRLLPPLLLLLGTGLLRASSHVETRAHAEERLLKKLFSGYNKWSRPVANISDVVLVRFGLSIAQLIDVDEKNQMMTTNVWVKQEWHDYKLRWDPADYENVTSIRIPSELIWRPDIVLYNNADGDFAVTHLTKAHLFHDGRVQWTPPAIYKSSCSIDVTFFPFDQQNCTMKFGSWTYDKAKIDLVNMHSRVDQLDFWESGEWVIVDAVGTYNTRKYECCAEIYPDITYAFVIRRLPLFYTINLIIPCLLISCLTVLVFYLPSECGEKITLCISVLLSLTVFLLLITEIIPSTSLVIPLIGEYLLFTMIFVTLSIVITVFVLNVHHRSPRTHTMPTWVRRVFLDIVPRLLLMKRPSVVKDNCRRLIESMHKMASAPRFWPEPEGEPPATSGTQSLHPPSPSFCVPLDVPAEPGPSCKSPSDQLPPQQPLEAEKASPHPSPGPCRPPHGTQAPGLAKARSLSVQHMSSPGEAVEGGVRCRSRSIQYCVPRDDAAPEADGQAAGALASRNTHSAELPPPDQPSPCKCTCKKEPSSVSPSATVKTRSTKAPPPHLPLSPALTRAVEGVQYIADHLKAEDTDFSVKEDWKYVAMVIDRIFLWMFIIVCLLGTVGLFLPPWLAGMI

Molecule `[11CH3]N1C2CCC1C(c1cncc(I)c1)C2` (centres undefined) showed a Ki in data set [1] of 29 nM. In data set [2], the half-life came out at 1 h. For the same molecule, the logP in data set [3] was 1.09. For the same molecule, the fraction unbound in data set [4] is 0.6.
